{"source": "patent US11077206B2", "about": "“Composition for gene therapy or transfection, and preparation method and use thereof” (SHANGHAI CHANGZHENG HOSPITAL, priority 2017, dated 2021)", "test_system": "Hela-luci cells", "test": "cytotoxicity in Hela-luci cells by MTT method", "assay_type": "cell-based", "details": "24 hours, siRNA (and cationic polymer where named) at transfection concentration, EGCG dose well above the transfection dose", "experimental": "(§1) A method for studying the cytotoxicity of the natural polyphenol EGCG in the present invention comprises steps of: incubating Hela-luci cells in a 96-well plate at a cell density of 10^4 cells/well, removing a medium after incubation for 12 hours, and adding 100 μl fresh medium containing the siRNA whose concentration is the same as transfection concentration and a certain amount of EGCG, where the concentration of EGCG is from low to high (comprising the transfection concentration), and a final concentration is much higher than the transfection concentration; culturing for 24 hours, and measuring cytotoxicity by a MTT method.\nas §1, with “polyphenol EGCG and cationic polymer LPEI in the” for “polyphenol EGCG in the”, “the siRNA and LPEI whose concentration” for “the siRNA whose concentration”, “MTT method. […]” for “MTT method.”", "data": [{"smiles": "O=C(O[C@@H]1Cc2c(O)cc(O)cc2O[C@@H]1c1cc(O)c(O)c(O)c1)c1cc(O)c(O)c(O)c1", "note": "[EGCG]", "values": [{"measurement": "cell viability", "value": "more than 90%"}]}]}
